Experimental data as given in paper PMC9024893, “1,2,4-Trioxolane and 1,2,4,5-Tetraoxane Endoperoxides against Old-World Leishmania Parasites: In Vitro Activity and Mode of Action” (Pharmaceuticals, 2022).
Like-named read-outs stand apart in the source and are kept apart here.

How the values were obtained:
[1] = system: L. infantum IMT151 promastigotes; assay: Promastigotes susceptibility assay (MTT), L. infantum; assay type: cell-based; details: Leishmania infantum, read-out: IC50 ± SD, L. infantum promastigotes
Protocol: (§1) Promastigote forms of strains of L. infantum (MHOM/PT/1988/IMT151) and L. donovani (MHOM/BD/2006/BD14) were cultured at 24 °C ± 1 °C in M199 medium (Sigma) supplemented with 20% foetal bovine serum (FBS, Sigma) and 1% penicillin-streptomycin (Sigma). L. infantum strain belongs to IHMT, Portugal cryobank collection and the L. donovani strain was kindly provided by Dr. Katrin Kuhls, Technical University of Applied Sciences Wildau, Germany. Promastigotes used for the experiments had 7 to 12 in vitro passages in culture after isolation from mice, in order to keep virulence, and were used when the stationary phase of growth was reached (day 5 to 6), corresponding to the highest promastigotes density.
(§2) For the determination of the antileishmanial activity and IC50, promastigotes of L. infantum and L. donovani were plated in 96-well flat bottom culture plates at a concentration of 5 × 10^6 parasites/mL and incubated with six serial concentrations of each compound (Table 3), in four replicates, including the control drugs, amphotericin B, miltefosine and pentamidine. One untreated control (parasites with M199 medium plus 0.5% DMSO as vehicle solution) and one blank (M199 medium alone) were also plated out in quadruplicate. After 48 h incubation at 24 °C ± 1 °C, the inhibitory activity of the compounds was evaluated using the MTT, as previously described, with an additional 4 h incubation at 36 °C. Results were expressed in terms of percentage of parasite viability relative to nontreated control and IC50 was calculated fitting the data as a non-linear regression with variable slope using a dose-response inhibitory model, in the GraphPad Prism V 8.0 program. Each compound was tested in three independent assays. […]

[2] = Cytotoxicity assay (MTT), PMA-differentiated THP-1 cell line; assay type: cell-based; details: human
Protocol: (§3) Adherent BALB/c mouse macrophage cell line J774A.1 (ATCC® TIB 67™) and suspension human acute monocytic leukemic cell line THP-1 (ATCC® TIB-202™) were purchased from DSMZ, Germany were cultured and maintained in DMEM medium (Gibco) and RPMI 1640 (Sigma), respectively, supplemented with 10% FBS, 1% penicillin-streptomycin (Sigma) and L-glutamine 200 mM (Sigma), at 37 °C, 5% CO2.
(§4) Cell lines J774A.1 and THP-1 were used to estimate CC50 of the peroxides. Cells were plated in 96-well flat bottom culture plates (VWR) at 5 × 10^5 cells/mL. The monocytic cell line THP-1 was differentiated in RPMI medium with phorbol myristate acetate (PMA) (25 ng/mL; Sigma) for 24 h, followed by a washing step with RPMI medium. Six serial concentrations of the compounds (Table 3) were added in four replicates and the plates were incubated at 37 °C ± 1 °C, 5% CO2 for 48 h. An untreated control (cells in DMEM or RPMI medium plus 0.5% DMSO as vehicle) and blank (medium alone) were plated out in quadruplicate. After the incubation period, 20 µL/well of MTT [3-(4,5-dimethylthiazol-2-yl)-2,5-diphenyltetrazolium bromide] was added to a final concentration of 5 µg/mL in 1× phosphate-buffered saline (PBS, Merck), with an additional 4 h incubation at 36 °C, as previously described. The formazan salts were resuspended in 2-propanol (Merck) and the cell viability was determined by measuring absorbance with a Synergy ™HTX Multi Mode Microplate Reader at 595 nm (Dynex Technologies). The CC50 values were calculated fitting the data as a non-linear regression with variable slope using a dose-response inhibitory model, in the GraphPad Prism V 8.0 program. Each compound was tested in three independent assays.

[3] = system: L. donovani BD14 promastigotes; assay: Promastigotes susceptibility assay (MTT), L. donovani; assay type: cell-based; details: Leishmania donovani, read-out: IC50 ± SD, L. donovani promastigotes
Protocol: as §1, §2

[4] = Cytotoxicity assay (MTT), J774A.1 cell line; assay type: cell-based; details: mouse
Protocol: as §3, §4

[5] = system: L. infantum promastigotes; assay: Promastigotes DNA fragmentation (agarose gel); assay type: cell-based, Leishmania infantum; details: IC50 concentrations, 24 h
Protocol: 2 mM H2O2 was used as DNA damage inductor and non-treated cells were used as control. After centrifugation (10 min, 800× g) DNA was extracted using a commercial extraction kit (High Template DNA Preparation Kit, Roche, Germany), according to the manufacturer’s instructions.

[6] = system: L. donovani BD14 intracellular amastigotes; assay: Intracellular amastigotes assay in J774A.1 macrophages, L. donovani; assay type: cell-based; details: Leishmania donovani, read-out: IC50 ± SD, L. donovani intracellular amastigotes
Protocol: (§5) The intracellular assay using the macrophage J774A.1 cell line was performed with the compounds that presented best SI on the promastigote’s susceptibility assay. J774A.1 cells were adjusted to 2.5 × 10^5 cells/mL in supplemented DMEM medium. 200 μL/well of the cell suspension was placed in 16 well Lab Tek culture glass slides (Nunc), and incubated at 37 °C ± 1 °C, 5% CO2, for 3 h, to enable the cells to adhere to the slides. After a washing step with DMEM to discard non-attached cells, the cells were infected with 2.5 × 10^6 cells/mL promastigotes in a 10:1 parasite-host cell proportion for 24 h. Compounds and control drugs were added in two replicates of six serial concentrations (Table 3). As negative control, macrophages were cultivated in medium and DMSO, as vehicle solution (0.5% v/v). Slides were incubated for 48 h at the same temperature. After a washing step with 1× PBS (Sigma), slides were fixed and stained, and the infection index was calculated according to [34] by counting the number of intracellular amastigotes per 100 macrophages, in treated and untreated cells. Two independent experiments were performed to determine the amastigotes IC50 of each compound, which was calculated by fitting the data as a non-linear regression with variable slope using a dose-response inhibitory model, in the GraphPad Prism V 8.0 program. SI was determined as described above.

[7] = system: L. infantum IMT151 intracellular amastigotes; assay: Intracellular amastigotes assay in J774A.1 macrophages, L. infantum; assay type: cell-based; details: Leishmania infantum, read-out: IC50 ± SD, L. infantum intracellular amastigotes
Protocol: as §5

[8] = PMA-differentiated THP-1 cells, 48 h incubation, MTT, read-out: CC50 ± SD, THP-1 Cell Line
[9] = J774A.1 macrophage cells, 48 h incubation, MTT, read-out: CC50 ± SD, J774A.1 Cell Line
[10] = 48 h incubation, MTT, read-out: CC50 ± SD, THP-1 Cell Line
[11] = 48 h incubation, MTT, read-out: CC50 ± SD, J774A.1 Cell Line
[12] = J774.A1, 48 h incubation, J774A.1 host cells

Row | Compound | IC50 ([1]; 48 h incubation, MTT) [µM] | CC50 at 48 h [2, 8] [µM] | IC50 ([3]; 48 h incubation, MTT) [µM] | CC50 at 48 h [4, 9] [µM] | other results
1 | C1C2CC3CC1CC(C2)C31OOC2(CCC(Nc3nnn[nH]3)CC2)OO1 (stereo not drawn) [LC163] | 190 ± 21.6 | 753 ± 90.3 | 532 ± 105 | 474 ± 83.5 | 
2 | O=C1CCC2(CC1)OOC1(O2)C2CC3CC(C2)CC1C3 (stereo not drawn) [LC50, Dispiro[cyclohexane-1,3'-[1,2,4]trioxolane-5',2''-tricyclo[3.3.1.13,7]decan]-4-one] |  |  |  |  | IC50 ([1]; 48 h): 378.9 ± 2.8 µM; CC50 at 48 h [2, 10]: 713 ± 18.4 µM; IC50 ([3]; 48 h): 354 ± 8.4 µM; CC50 at 48 h [4, 11]: 519 ± 140 µM
3 | OCC1CCC2(CC1)OOC1(OO2)C2CC3CC(C2)CC1C3 (stereo not drawn) [LC146] | 492 ± 22.7 | 3220 ± 72 | 793 ± 37.2 | 1465 ± 13 | 
4 | c1ccc(-n2nnnc2OCC2CCC3(CC2)OOC2(O3)C3CC4CC(C3)CC2C4)cc1 (stereo not drawn) [LC132] | 13 ± 1.7 | 99.8 ± 16.4 | 14.3 ± 5.5 | 45.8 ± 19.9 | genomic DNA fragmentation [5]: did not produce DNA fragmentation; IC50 [6, 12]: 9.4 ± 0.1 µM; IC50 [7, 12]: 13.2 ± 5.2 µM
5 | C1C2CC3CC1CC(C2)C31OOC2(CCC(Nc3nnn[nH]3)CC2)O1 (stereo not drawn) [LC136, N-1H-1,2,3,4-Tetraazol-5-yl-dispiro[cyclohexane-1,3'-[1,2,4]trioxolane-5',2''-tricyclo[3.3.1.13,7]decan]-4-ylamine] | 434 ± 6.4 | 250 ± 4.1 | 232 ± 28.4 | 113 ± 13.8 | 
6 | CCCCCCCCCCCCCCCCOP(=O)([O-])OCC[N+](C)(C)C [Miltefosine, reference compound] | 149 ± 3.5 |  | 24.2 ± 10 |  | IC50 [6, 12]: 13.3 ± 3 µM; CC50 at 48 h [2]: 100 ± 12.1 µM; IC50 [7, 12]: 16.8 ± 11.7 µM; CC50 at 48 h [4]: 94.4 ± 17.3 µM
7 | O=S1(=O)N=C(OCC2CCC3(CC2)OOC2(O3)C3CC4CC(C3)CC2C4)c2ccccc21 (stereo not drawn) [LC129] | 266 ± 13.3 | 356 ± 31.4 |  | 323 ± 24.5 | 
8 | C1CCC2(CC1)OOC1(OO2)C2CC3CC(C2)CC1C3 [LC137] |  |  |  |  | IC50 ([1]; 48 h): 137.1 ± 0.2 µM; IC50 ([6]; J774.A1, 48 h): 88.3 ± 14.2 µM; CC50 at 48 h [2, 10]: 3569 ± 22 µM; IC50 ([7]; J774.A1, 48 h): 168 ± 8.9 µM; IC50 ([3]; 48 h): 143 ± 16.5 µM; CC50 at 48 h [4, 11]: 443 ± 44 µM
9 | Cn1nnc(NCC2CCC3(CC2)OOC2(O3)C3CC4CC(C3)CC2C4)n1 (stereo not drawn) [LC131] | 321 ± 11.8 | 78.2 ± 14.1 | 124 ± 19 | 34.1 ± 14.5 | 
10 | OCC1CCC2(CC1)OOC1(O2)C2CC3CC(C2)CC1C3 (stereo not drawn) [LC93] | 435 ± 22.7 | 185 ± 16.1 | 153 ± 22.4 | 12 ± 0.5 | 
11 | O=C1CCC2(CC1)OOC1(OO2)C2CC3CC(C2)CC1C3 [LC140] | 258 ± 6.4 | 1400 ± 76 | 460 ± 38.3 | 678 ± 29.9 | 
12 | C1CC2(CCN1)OOC1(OO2)C2CC3CC(C2)CC1C3 [LC139] |  |  |  |  | IC50 ([1]; 48 h): 472 ± 39.2 µM; CC50 at 48 h [2, 10]: 115 ± 11.4 µM; IC50 ([3]; 48 h): 507 ± 53.3 µM; CC50 at 48 h [4, 11]: 913 ± 70.7 µM
